Experimental data: PMC11783601, “Analogue-Sensitive Inhibition of Histone Demethylases Uncovers Member-Specific Function in Ribosomal Protein Synthesis” (Journal of the American Chemical Society, 2025)
“Also recorded” adds a separate entry of the source.

Assays:
TET3 = biological target: T1, TET3 (Homo sapiens, UniProt O43151); assay: Activity of full-length TET in HEK293T cells, 5hmC dot blot; format: cell-based; conditions: dot-blot with 5hmC antibody
T1 construct: transfected with full-length TET1/3 constructs; expressed in transfected cells; host or cells: HEK293T
T1 sequence (O43151 whole entry): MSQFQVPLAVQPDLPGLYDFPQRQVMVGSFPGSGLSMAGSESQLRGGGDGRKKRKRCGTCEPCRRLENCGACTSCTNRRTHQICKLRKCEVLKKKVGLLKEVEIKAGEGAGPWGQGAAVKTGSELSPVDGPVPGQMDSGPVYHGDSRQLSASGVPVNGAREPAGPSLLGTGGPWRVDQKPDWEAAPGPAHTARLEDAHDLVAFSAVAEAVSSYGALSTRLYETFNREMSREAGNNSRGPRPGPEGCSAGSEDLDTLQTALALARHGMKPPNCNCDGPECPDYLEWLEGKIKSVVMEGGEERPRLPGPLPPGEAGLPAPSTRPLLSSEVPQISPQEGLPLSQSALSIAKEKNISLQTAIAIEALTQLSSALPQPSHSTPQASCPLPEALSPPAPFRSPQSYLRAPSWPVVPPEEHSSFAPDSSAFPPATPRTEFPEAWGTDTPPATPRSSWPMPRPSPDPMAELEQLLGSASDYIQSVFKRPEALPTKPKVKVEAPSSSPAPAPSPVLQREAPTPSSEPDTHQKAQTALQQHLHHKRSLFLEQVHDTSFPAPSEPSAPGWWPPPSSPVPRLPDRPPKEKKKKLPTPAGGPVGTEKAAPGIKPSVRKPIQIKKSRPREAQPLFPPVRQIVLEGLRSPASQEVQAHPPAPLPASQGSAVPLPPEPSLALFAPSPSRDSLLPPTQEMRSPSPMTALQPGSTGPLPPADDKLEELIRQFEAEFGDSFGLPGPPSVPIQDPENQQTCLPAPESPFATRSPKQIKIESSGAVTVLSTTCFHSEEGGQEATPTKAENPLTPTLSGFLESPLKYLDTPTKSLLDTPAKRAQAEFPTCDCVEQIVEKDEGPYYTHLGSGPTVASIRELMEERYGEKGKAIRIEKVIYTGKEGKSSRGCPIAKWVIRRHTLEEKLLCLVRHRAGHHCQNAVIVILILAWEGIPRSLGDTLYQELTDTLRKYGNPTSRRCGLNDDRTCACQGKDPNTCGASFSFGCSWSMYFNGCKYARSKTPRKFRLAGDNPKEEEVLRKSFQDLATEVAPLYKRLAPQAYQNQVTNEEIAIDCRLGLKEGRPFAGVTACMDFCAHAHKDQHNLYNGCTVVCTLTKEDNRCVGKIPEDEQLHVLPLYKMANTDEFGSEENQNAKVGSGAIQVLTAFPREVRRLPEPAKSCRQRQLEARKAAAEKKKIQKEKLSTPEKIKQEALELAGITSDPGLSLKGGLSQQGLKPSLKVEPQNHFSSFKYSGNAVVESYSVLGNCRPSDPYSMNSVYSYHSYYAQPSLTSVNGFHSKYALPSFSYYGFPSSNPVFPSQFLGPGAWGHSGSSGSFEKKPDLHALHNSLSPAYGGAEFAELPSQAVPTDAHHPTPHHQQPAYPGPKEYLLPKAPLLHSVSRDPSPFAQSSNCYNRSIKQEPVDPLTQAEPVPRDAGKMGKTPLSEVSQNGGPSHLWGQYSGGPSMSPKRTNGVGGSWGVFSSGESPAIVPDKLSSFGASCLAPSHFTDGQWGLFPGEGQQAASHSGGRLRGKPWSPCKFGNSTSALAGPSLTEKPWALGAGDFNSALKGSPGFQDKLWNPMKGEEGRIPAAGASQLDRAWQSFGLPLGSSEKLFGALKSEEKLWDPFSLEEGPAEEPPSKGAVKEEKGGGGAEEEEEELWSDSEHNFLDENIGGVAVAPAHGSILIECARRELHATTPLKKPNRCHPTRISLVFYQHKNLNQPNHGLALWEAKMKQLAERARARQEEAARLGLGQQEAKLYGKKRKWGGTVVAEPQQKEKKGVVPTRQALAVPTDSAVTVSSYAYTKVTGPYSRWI
Description: (§1) were quantified with Bradford assay (Bio-Rad laboratories) using BSA as a standard and used for
(§2) 14. Expression and activity of full-length TET1 and 3 in HEK293T cells
(§3) To determine the effect of 6A on TET1 and TET3 activity, HEK293T cells were plated in 6 well
(§4) plates and transfected with full-length TET1/3 constructs. Briefly, 2ug of TET1/3 or Empty Vector
(§5) control per well was added to 200µL of JetOptimus buffer and vortexed followed by addition of
(§6) 3µL JetOptimus reagent. The solution was vortexed and left to sit at room temperature for 10
(§7) minutes. The solution was then added to 1.8mL of DMEM and added to the cells in culture plate.
(§8) The cells were left for 4 hours at 37 °C incubator at 5% CO2. The media was aspirated and replaced
(§9) with 2mL of DMEM and 100µM of 6A was added or equivalent volume of DMSO and left in the
(§10) incubator for 24 hours. Cells were then collected and subject to genomic DNA isolation using
(§11) Fisher GeneJET gemoic DNA Purification Kit (Fisher K0721) following manufactures protocol.
(§12) 1000ng of gDNA, as measured via nanodrop, was then subject to Dot Blot experiment. Briefly,
(§13) 20µL of 1000ng gDNA was added to 40µL of 2M NaOH-50mM EDTA solution for 3 minutes at
(§14) room temperature. 140µL of 10mM Tris/1mM EDTA pH 8.0 (TE) buffer and heated at 95 °C for […]

TET1 = biological target: T2, TET1 (Homo sapiens, UniProt Q8NFU7); assay: as above; format: cell-based; conditions: dot-blot with 5hmC antibody
T2 construct: transfected with full-length TET1/3 constructs; expressed in transfected cells; host or cells: HEK293T
Description: as §1, §2, §3, §4, §5, §6, §7, §8, §9, §10, §11, §12, §13, §14

ALKBH2 = biological target: T3, ALKBH2 (Homo sapiens, UniProt Q6NS38); assay: Dot blot-based assay for ALKBH2 on genomic DNA; format: biochemical; conditions: genomic DNA from HEK293T cells, 6 (µM): 100
T3 construct: we recombinantly expressed the catalytic domains of 12 wild type dioxygenases; 6xHis (N); made in house; host or cells: E. coli BL21 (DE3)
T3 sequence (Q6NS38 152-257 limits assumed): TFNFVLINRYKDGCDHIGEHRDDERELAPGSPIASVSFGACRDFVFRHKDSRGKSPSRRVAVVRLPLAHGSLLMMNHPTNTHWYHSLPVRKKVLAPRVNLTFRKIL

[1] = biological target: T4, full-length wild type KDM4B (Homo sapiens, UniProt O94953); assay: H3K9me3 Western blot of nuclear extracts of transfected HEK293T cells; format: cell-based; conditions: n-octyl IOX1 10 μM
T4 construct: HEK293T cells were transfected with full-length wild type KDM4B-E or their respective mutants; host or cells: HEK293T
T4 sequence (O94953 whole entry): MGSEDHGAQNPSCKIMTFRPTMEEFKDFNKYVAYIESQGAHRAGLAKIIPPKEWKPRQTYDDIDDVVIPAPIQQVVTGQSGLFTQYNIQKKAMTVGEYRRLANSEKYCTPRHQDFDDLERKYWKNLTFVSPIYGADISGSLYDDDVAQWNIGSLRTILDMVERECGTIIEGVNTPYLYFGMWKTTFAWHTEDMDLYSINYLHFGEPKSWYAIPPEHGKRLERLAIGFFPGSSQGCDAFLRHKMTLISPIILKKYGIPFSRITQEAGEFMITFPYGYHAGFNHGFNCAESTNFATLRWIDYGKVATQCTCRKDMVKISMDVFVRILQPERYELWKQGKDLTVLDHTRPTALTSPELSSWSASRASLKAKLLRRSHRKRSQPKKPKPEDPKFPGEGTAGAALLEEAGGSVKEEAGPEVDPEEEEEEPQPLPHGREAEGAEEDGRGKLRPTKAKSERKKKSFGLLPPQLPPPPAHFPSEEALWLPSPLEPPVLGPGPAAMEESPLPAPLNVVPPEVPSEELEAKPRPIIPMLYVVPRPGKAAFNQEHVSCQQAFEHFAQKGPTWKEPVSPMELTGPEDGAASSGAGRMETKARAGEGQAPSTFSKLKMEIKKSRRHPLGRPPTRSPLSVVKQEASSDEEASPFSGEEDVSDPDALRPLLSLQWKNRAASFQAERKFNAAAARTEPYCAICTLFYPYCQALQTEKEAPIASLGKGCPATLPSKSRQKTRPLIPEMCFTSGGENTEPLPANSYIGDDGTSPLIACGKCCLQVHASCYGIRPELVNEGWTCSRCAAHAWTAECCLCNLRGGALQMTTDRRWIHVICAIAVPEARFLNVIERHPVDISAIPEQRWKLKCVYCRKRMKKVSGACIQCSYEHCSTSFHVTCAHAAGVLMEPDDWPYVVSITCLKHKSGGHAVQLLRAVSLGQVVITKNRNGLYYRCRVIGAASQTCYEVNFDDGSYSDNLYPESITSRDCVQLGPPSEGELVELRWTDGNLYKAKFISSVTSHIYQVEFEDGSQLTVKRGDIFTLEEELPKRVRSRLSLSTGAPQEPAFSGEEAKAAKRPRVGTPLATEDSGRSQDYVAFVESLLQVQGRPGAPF
From the text: (§15) KDM4B and C are structurally homologous to KDM4A, and KDM4D and E have a catalytic pocket near-identical to that of KDM4A but lack the Tudor and PHD domains known to bind trimethylated lysine in histones (Figure 1B).[11] HEK293T cells were transfected with full-length wild type KDM4B-E or their respective mutants. Western blot analysis of nuclear preparations using the H3K9me3 antibody confirmed all of the proteins to be catalytically active (Figures 4G–N and S32–S35).
(§16) KDM4A mammalian expression plasmid in CMV vector was purchased from Addgene (plasmid #24180). KDM4B mammalian expression plasmid in CMV vector was purchased from Addgene (plasmid #24181). KDM4C mammalian expression plasmid in CMV vector was purchased from Addgene (plasmid #24214). KDM4D mammalian expression plasmid in pReciever vector was purchased from Genecopoia (EX-Z0917-M06.) KDME mammalian expression plasmid in pRP-EXP was designed from Vector Builder. The KDM4A-F185A, KDM4B-F186A, KDM4C -F187A, KDM4D-F189A, and KDM4E F186A mutants were generated using Quikchange Lightening Mutagenesis Kit (Agilent) according to manufacturer’s protocol and confirmed by Sanger […]
(§17) HEK293T/17 cells (ATCC) were grown in Delbucco’s Modified Eagle Medium (DMEM) (Corning) with 10% FBS at 37 °C (Corning), 5% CO2, and 95% relative humidity in a 6-well cell culture plate. When cells reached 90% confluency, 3 µg of plasmid and 6 µg lipofectamine 2000 (Invitrogen: 11668019) were incubated with 100 µL OptiMem. After 5 minutes the plasmid and lipofectamine were combined and incubated at room temperature for 20 minutes and added to the cell culture disk. Cells were returned to the incubator to grow for 4-6 hours. This was followed by treatment of compound treatment (n-octyl IOX121,22 or a specific NOG ester) at indicated concentrations and further culture for specified time. The media was removed, and cells were washed with ice cold PBS (Corning), then trypsinized with TrpLE Express (Gibco). The trypsinization reaction was quenched with DMEM 10% FBS and cells were pelleted then washed once with ice cold PBS. The nuclear extracts were generated by first resuspending the cell pellets in 700 µL nuclear isolation buffer (15 mM Tris pH 7.5, 60 mM KCl, 15 mM NaCl, 5 mM MgCl2, 1 mM CaCl2, 1mm DTT, 2 mM Na3Van, 250 mM sucrose, 1X Pierce protease inhibitor (Thermo Fisher #PIA32955), 1 mM PMSF, 0.3% NP40 diluted to volume with MilliQ H2O) and incubated on ice for 5 minutes.23 The samples were then pelleted by centrifugation at 2000 rcf for 5 minutes.
(§18) The supernatant was removed, and the pelleted nuclei were resuspended in 200 µL Pierce IP lysis buffer (Thermo Fisher #87787) containing 1X Pierce protease inhibitor and left on ice for 5 minutes. The nuclei were then sonicated at 100% amp for 5 minutes (pulsed 1 minute “on”, 20 seconds “rest”) using a Qsonica-Q700, cuphorn sonicator. The samples were pelleted once again at 2000 rcf for 5 minutes and the supernatant containing the nuclear extracts were collected. MgCl2 (1M) solution was added to each sample give a final concentration of 6mM. […]
(§19) Prism with the corresponding bars representing the mean and standard deviation of the population.
(§20) For the time dependent imaging, cells containing the transfected KDM4A mutant were identified by their HA signal. These cells were used to create a selection which was then imposed onto the respective H3K9me3 or BrdU images. The mean signal was then measured for H3K9me3 or BrdU only within the cells expressing the KDM4A mutant. To compare changes in H3K9me3 or BrdU between trials, the quantification values were normalized to the mean signal at t=0. The normalized, mean signal and error for H3K9me3 or BrdU were then plotted in GraphPad Prism.
(§21) 21. General protocol for Western blotting
(§22) Assay samples were mixed with appropriate volume of 4X Laemmli Dye (Bio-Rad), heated at 95 °C for 5 minutes and loaded onto 4–12% Criterion™ XT Bis-Tris protein gels (Bio-Rad #3450123) or in-house prepared SDS-polyacrylamide gel and subjected to electrophoresis […]

[2] = biological target: T5, full-length wild type KDM4E (Homo sapiens, UniProt B2RXH2); assay: as above; format: cell-based
T5 construct: HEK293T cells were transfected with full-length wild type KDM4B-E or their respective mutants; host or cells: HEK293T
T5 sequence (B2RXH2 whole entry): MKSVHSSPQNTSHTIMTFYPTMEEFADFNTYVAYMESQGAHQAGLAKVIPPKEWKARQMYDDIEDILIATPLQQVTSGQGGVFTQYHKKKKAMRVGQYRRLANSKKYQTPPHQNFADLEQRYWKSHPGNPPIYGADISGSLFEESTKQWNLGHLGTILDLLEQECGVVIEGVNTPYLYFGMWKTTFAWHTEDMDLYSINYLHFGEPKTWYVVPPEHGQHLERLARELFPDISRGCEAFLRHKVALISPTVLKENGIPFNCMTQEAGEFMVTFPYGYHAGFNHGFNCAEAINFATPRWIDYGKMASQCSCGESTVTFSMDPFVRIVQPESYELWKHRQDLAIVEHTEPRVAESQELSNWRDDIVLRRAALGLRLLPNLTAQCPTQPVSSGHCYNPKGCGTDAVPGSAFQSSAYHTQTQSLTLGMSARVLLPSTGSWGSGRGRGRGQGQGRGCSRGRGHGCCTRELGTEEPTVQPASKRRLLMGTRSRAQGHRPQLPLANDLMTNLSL
From the text: as §15, §16, §17, §18, §19, §20, §21, §22

[3] = biological target: T6, full-length wild type KDM4C (Homo sapiens, UniProt Q9H3R0); assay: as above; format: cell-based
T6 construct: HEK293T cells were transfected with full-length wild type KDM4B-E or their respective mutants; host or cells: HEK293T
T6 sequence (Q9H3R0 whole entry): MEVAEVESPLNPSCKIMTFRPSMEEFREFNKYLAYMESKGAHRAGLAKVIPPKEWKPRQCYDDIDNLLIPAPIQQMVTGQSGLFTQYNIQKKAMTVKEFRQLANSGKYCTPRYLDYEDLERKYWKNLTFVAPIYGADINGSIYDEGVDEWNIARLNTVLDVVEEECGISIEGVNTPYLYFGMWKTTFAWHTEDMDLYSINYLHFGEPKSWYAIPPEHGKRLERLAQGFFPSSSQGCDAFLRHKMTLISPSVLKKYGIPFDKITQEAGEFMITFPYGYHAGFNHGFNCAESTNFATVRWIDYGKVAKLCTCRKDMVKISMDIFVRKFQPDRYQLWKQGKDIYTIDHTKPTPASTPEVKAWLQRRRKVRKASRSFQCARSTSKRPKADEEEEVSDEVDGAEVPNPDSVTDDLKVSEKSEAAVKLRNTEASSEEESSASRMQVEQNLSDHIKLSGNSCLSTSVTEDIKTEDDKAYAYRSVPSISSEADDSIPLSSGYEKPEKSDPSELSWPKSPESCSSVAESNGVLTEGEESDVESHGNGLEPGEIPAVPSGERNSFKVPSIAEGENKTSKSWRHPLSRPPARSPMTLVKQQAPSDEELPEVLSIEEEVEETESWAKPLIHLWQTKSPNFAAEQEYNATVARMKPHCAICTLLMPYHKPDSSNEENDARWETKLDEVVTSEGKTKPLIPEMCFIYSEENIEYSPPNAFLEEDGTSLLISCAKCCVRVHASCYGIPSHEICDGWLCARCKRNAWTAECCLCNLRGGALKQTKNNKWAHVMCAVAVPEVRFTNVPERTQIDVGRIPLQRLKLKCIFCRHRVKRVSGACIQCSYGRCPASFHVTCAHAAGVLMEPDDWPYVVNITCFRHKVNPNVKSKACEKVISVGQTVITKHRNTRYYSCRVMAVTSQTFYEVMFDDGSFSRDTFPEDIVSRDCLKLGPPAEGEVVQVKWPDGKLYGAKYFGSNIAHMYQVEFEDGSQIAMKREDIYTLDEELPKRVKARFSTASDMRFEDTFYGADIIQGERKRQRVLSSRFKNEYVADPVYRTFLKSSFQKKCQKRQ
From the text: as §15, §16, §17, §18, §19, §20, §21, §22

[4] = biological target: T7, full-length wild type KDM4D (Homo sapiens, UniProt Q6B0I6); assay: as above; format: cell-based
T7 construct: HEK293T cells were transfected with full-length wild type KDM4B-E or their respective mutants; host or cells: HEK293T
T7 sequence (Q6B0I6 whole entry): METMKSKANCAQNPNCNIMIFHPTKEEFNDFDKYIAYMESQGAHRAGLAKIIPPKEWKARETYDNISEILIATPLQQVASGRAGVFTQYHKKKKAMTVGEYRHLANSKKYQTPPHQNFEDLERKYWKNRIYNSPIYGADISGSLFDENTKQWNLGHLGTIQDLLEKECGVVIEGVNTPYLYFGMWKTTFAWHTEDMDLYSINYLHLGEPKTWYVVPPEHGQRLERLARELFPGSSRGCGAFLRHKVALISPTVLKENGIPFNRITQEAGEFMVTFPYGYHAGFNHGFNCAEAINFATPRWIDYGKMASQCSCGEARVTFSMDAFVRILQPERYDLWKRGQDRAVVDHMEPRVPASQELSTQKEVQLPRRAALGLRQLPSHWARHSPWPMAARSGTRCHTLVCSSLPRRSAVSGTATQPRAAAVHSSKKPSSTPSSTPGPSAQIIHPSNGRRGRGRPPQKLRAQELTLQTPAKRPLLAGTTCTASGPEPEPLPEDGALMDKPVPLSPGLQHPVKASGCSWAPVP
From the text: as §15, §16, §17, §18, §19, §20, §21, §22

CCCCCCCCOC(=O)C(=O)NC(CC(C)C)C(=O)O [6A, L-Leu octyl-ester NOG]
inhibition of TET3 5hmC formation (TET3): No inhibition | inhibition of TET1 5hmC formation (TET1): No inhibition

CC(C)CC(NC(=O)C(=O)O)C(=O)O (stereo not shown) [compound 6, N-oxalyl leucine]
inhibition of ALKBH2 (ALKBH2): No inhibition

CCCCCCCCOC(=O)c1ccc(O)c2ncccc12 [n-octyl IOX1]
inhibition of wild type KDM4B H3K9me3 demethylation [1]: Dose-dependent inhibition; also recorded: significantly reduced | inhibition of wild type KDM4E H3K9me3 demethylation [2]: Dose-dependent inhibition; also recorded: significantly reduced | inhibition of wild type KDM4C H3K9me3 demethylation [3]: Dose-dependent inhibition; also recorded: significantly reduced | inhibition of wild type KDM4D H3K9me3 demethylation [4]: Dose-dependent inhibition; also recorded: significantly reduced
